Each structure is given as a SMILES string. A value given as a limit tells only on which side of the number the result lay.

For this test, the target named is T1, T1R umami taste receptor (Homo sapiens, UniProt Q7RTX0+Q7RTX1).
T1 sequence (Q7RTX1 21-841): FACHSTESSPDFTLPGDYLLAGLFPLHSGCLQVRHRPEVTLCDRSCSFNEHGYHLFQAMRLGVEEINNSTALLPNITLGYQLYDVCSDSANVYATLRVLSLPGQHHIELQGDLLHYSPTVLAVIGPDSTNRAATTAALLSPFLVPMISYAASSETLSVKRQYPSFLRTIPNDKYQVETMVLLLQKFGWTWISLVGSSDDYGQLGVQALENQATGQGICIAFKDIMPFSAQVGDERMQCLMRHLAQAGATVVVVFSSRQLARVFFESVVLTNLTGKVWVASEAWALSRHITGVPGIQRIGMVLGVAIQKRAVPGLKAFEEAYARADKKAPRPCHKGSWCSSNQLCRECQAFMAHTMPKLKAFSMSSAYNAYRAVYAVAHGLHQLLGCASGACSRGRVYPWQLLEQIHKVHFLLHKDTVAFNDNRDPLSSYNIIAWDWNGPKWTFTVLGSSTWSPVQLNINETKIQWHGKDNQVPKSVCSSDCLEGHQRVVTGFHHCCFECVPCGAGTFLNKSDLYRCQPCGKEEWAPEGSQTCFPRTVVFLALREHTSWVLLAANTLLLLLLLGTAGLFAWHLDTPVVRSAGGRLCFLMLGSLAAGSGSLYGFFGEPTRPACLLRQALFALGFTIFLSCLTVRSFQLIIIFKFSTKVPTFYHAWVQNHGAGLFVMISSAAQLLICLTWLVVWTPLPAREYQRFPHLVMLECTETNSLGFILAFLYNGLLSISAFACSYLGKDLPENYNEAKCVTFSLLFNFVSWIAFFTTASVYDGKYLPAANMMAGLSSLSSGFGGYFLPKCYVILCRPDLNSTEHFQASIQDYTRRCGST
T1 sequence (Q7RTX0 21-852): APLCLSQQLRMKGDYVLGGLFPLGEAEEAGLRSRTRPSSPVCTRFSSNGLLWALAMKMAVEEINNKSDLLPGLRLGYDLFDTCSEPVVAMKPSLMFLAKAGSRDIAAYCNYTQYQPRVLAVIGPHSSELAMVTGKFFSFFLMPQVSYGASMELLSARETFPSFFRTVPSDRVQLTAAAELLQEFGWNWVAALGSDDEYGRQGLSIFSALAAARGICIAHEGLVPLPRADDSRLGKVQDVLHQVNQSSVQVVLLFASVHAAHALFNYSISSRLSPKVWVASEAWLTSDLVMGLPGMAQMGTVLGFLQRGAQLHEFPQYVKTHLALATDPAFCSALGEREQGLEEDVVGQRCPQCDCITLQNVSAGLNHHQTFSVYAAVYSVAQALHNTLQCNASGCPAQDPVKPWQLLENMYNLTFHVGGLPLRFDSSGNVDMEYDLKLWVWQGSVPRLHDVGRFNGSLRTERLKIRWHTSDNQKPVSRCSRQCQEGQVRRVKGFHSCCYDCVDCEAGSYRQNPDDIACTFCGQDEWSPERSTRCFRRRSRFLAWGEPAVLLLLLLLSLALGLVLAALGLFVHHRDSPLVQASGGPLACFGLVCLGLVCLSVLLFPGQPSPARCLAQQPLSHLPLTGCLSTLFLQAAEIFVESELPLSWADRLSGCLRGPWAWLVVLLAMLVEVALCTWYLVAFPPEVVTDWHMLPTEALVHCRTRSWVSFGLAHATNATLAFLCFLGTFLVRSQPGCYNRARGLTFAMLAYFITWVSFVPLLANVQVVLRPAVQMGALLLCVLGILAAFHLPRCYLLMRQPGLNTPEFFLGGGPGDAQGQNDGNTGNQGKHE
The test is described as follows: in vitro cell-based assay, cells expressing the T1R umami taste receptor; enhancement of MSG. Conditions: for MSG Enh. Ratio: MSG enhancement ratio at a particular concentration (concentration not given); for EC50: cells that express the T1R umami taste receptor, dose-binding curves. As for the experimental part:
Each of Compounds 101-145 was synthesized according to one of the general procedures set forth above in Examples 1 and Example 2. Thereafter, the compounds were tested in an in vitro cell-based assay having cells that express the T1R umami taste receptor. Dose-binding curves were recorded and the EC50 was determined for enhancement of MSG binding. Table 2 sets forth the calculated EC50 values for certain tested compounds as well as the MSG enhancement ratio at a particular concentration.

As for `Cc1ccc(C(=O)N[C@@H](C(=O)O)C(C)C)cc1C` [Compound 124, (3,4-dimethylbenzoyl)-D-valine], the “MSG Enh. Ratio” value is reported as 1.2 and the EC50 is > 50 µM. For `COc1ccc(/C=C/C(=O)N[C@@H](Cc2ccc(OC)cc2)C(=O)O)cc1` [Compound 140, (S,E)-3-(4-methoxyphenyl)-2-(3-(4-methoxyphenyl)acrylamido)propanoic acid], in that order: 1.8 and > 50 µM. For the compound `CC[C@H](C)[C@@H](CO)NC(=O)c1ccc2c(c1)OCO2` [Compound 110, N-((2S,3S)-1-hydroxy-3-methylpentan-2-yl) benzo[d][1,3]dioxole-5-carboxamide], the “MSG Enh. Ratio” value is 1.4 and the EC50 was > 50 µM.

For the compound `COc1ccc(C[C@H](NC(=O)/C=C/c2ccc(OC)c(OC)c2)C(=O)O)cc1` [Compound 141, (S,E)-2-(3-(3,4-dimethoxyphenyl)acrylamido)-3-(4-methoxyphenyl)propanoic acid], the “MSG Enh. Ratio” value is 1.6 and the half-maximal effective concentration (EC50) is > 50 µM. Consider `CC(C)C[C@@H](NC(=O)c1ccc2c(c1)OCO2)C(=O)O` [Compound 129, (benzo[d][1,3]dioxole-5-carbonyl)-D-leucine], for which the “MSG Enh. Ratio” value was 3.5 and the concentration giving a half-maximal response (EC50) is ~20 µM. As for `Cc1ccc(C(=O)N[C@@H](CC(C)C)C(=O)O)cc1` [Compound 123, (4-methylbenzoyl)-L-leucine], the “MSG Enh. Ratio” value came to 1.2 and the concentration giving a half-maximal response (EC50) is > 50 µM. In the case of `CC[C@H](C)[C@@H](CO)NC(=O)c1ccc(C)c(C)c1` [Compound 106, N-((2S,3S)-1-hydroxy-3-methylpentan-2-yl)-3,4-dimethylbenzamide], the “MSG Enh. Ratio” value was found to be 2.5 and the 50% effective concentration (EC50) was > 50 µM. For the compound `CC(C)c1ccc(C(=O)N[C@H](CO)Cc2ccccc2)cc1` [Compound 101, (S)-N-(1-hydroxy-3-phenylpropan-2-yl)-4-isopropylbenzamide], the “MSG Enh. Ratio” value is 1.4 and the concentration for a half-maximal effect (EC50) was > 50 µM. On to `Cc1ccc(C(=O)N[C@H](CC(C)C)C(=O)O)cc1C` [Compound 126, (3,4-dimethylbenzoyl)-D-leucine], for which the “MSG Enh. Ratio” value was determined as 1.8 and the half-maximal effective concentration (EC50) amounted to 27 µM. Take `CC(C)C[C@@H](CO)NC(=O)c1ccc(C(C)C)cc1` [Compound 102, (S)-N-(1-hydroxy-4-methylpentan-2-yl)-4-isopropylbenzamide]: the “MSG Enh. Ratio” value is on record as 1.4 and the EC50 was > 50 µM. In the case of `CC[C@H](C)[C@H](NC(=O)/C=C/c1ccc(OC)cc1)C(=O)O` [Compound 139, ((E)-3-(4-methoxyphenyl)acryloyl)-L-isoleucine], the “MSG Enh. Ratio” value is 1.5 and the EC50 is > 50 µM. Regarding `COc1ccc(/C=C/C(=O)N[C@@H](CCC(=O)O)C(=O)O)cc1` [Compound 142, (E)-(3-(4-methoxyphenyl)acryloyl)-L-glutamic acid], the “MSG Enh. Ratio” value worked out at 2.2 and the EC50 is > 50 µM.

As for `COc1ccc(/C=C/C(=O)N[C@H](CCC(=O)O)C(=O)O)cc1O` [Compound 144, (E)-(3-(3-hydroxy-4-methoxyphenyl)acryloyl)-D-glutamic acid], the concentration for a half-maximal effect (EC50) is > 50 µM.

Consider `CC(C)/C=C/C(=O)N[C@@H](CCC(=O)O)C(=O)O` [Compound 145, (E)-(4-methylpent-2-enoyl)-L-glutamic acid], for which the “MSG Enh. Ratio” value turned out to be 1.0 and the EC50 is > 50 µM.

Broadly, the EC50 is the concentration that produces a half-maximal response.

The values above are taken from US20250176598A1, “AMIDE COMPOUNDS AND THEIR USE AS FLAVOR MODIFIERS” (Firmenich Incorporated, priority 2022, published 2025).
